# Measured values from PMC11002876, “KcsA-Kv1.x chimeras with complete ligand-binding sites provide improved predictivity for screening selective Kv1.x blockers” (The Journal of Biological Chemistry, 2024).
# Where a SMILES comes first, the peptide text is derived from it.
# Target: T1, KcsA-Kv1.1 T-only chimera (Streptomyces lividans, UniProt P0A334, R52A/G53E/A54E/P55A/G56E/A57S/Q58H/L59F/I60S/T61S/Y62I/R64D)
# T1 sequence (P0A334 1-160 R52A/G53E/A54E/P55A/G56E/A57S/Q58H/L59F/I60S/T61S/Y62I/R64D): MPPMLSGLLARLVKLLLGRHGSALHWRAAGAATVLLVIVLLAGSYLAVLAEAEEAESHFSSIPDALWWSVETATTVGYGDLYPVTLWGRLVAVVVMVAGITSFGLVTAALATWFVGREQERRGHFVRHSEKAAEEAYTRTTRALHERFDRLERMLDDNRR
# Experiment: Phage ELISA-binding assay, KcsA-Kv1.1 T-only
# Design: species or system human Kv1.1 turret in Streptomyces lividans KcsA
# Conditions: toxin displayed on M13 phage; Fig. 8C
# Description: Phage display test solutions were prepared according to routine phage display protocols ([62]). Phosphorylated and annealed oligonucleotides encoding the peptide construct were ligated into linearized pAS62 phagemid vector (https://patents.google.com/patent/WO2022144560A1/en) at a vector/insert ratio of 1:3. The final phagemid construct harbored a signal sequence followed by the peptide of interest, a linker sequence ([…]), and the C-terminal part of the P3 coat protein (amino acids: 216-424 of NP_510891.1). Chemically competent XL1-Blue E. coli cells (2022249, Agilent) were transformed with the ligation product and then streaked onto ampicillin (100 μg/ml) containing LB/Amp plates and incubated for 16 h at 37 °C. A few clones were sequenced, and a single colony with confirmed target sequence was inoculated into 3 ml 2 YT medium supplemented with 100 μg/ml ampicillin and incubated at 37 °C until the culture reached midlog phase. The culture was infected with M13KO7 helper phage (N0315S, New England Biolabs) (phage/cell ratio 10:1) and was incubated for 30 min at 37 °C. The 3 ml culture was transferred into 200 ml 2YT medium, supplemented with 100 μg/ml ampicillin and 25 μg/ml kanamycin, and incubated overnight at 37 °C. The overnight cell culture (200 ml) was pelleted by centrifugation at 8000g for 10 min in 400 ml centrifuge tubes at 4 °C. […] The particle concentrations of phage solutions were determined using a NanoDrop One C (Thermo Fisher Scientific) spectrophotometer. The phage particle concentration was assessed according to the formula: (A268–A320) × 5 × 10^12 particles/ml ([62]). […]
# Phage stock solutions were diluted to working concentration with phage resuspension buffer supplemented with 2 mM DDM. […] Following blocking, the wells were washed 4× with washing buffer (300 μl TBS-Tween, 0.1% v/v) using a Wellwash Versa microplate washer (Thermo Fisher Scientific); then 50 μl phage solution (in TBS-BSA-Tween, 0.1% v/v, 2 mM DDM) at determined phage concentration was added to the wells and incubated for 1 h at room temperature on a horizontal shaker. […]
row,Structure (SMILES),"phage binding to KcsA-Kv1.1 T-only, in words"
1,"CC[C@H](C)[C@H](NC(=O)[C@H](CCC(=O)O)NC(=O)[C@@H](NC(=O)CN)C(C)C)C(=O)N[C@@H](CC(N)=O)C(=O)N[C@H](C(=O)N[C@@H](CCCCN)C(=O)N[C@H]1CSSC[C@@H]2NC(=O)[C@H](CCCCN)NC(=O)CNC(=O)[C@H](Cc3ccccc3)NC(=O)[C@H](CCCNC(=N)N)NC(=O)[C@H](CCSC)NC(=O)CNC(=O)[C@H](C)NC(=O)[C@H](CC(=O)O)NC(=O)[C@H](CCCCN)NC(=O)[C@@H]3CSSC[C@@H](C(=O)N[C@H](C(=O)N4CCC[C@H]4C(=O)N[C@@H](CCCCN)C(=O)O)[C@@H](C)O)NC(=O)[C@H](Cc4c[nH]cn4)NC(=O)[C@H](CSSC[C@H](NC(=O)[C@H](CCC(N)=O)NC(=O)[C@@H]4CCCN4C(=O)[C@H](CO)NC(=O)CNC(=O)[C@H](CO)NC1=O)C(=O)N[C@@H](CC(C)C)C(=O)N[C@@H](CCCCN)C(=O)N1CCC[C@H]1C(=O)N3)NC(=O)[C@H](CCCCN)NC(=O)[C@H](CCCNC(=N)N)NC(=O)[C@H](CC(N)=O)NC(=O)[C@H](CCSC)NC2=O)C(C)C [KTX1, Kaliotoxin-1]",ShK > KTX1
2,"CC[C@H](C)[C@@H]1NC(=O)[C@@H]2CSSC[C@H](NC(=O)[C@H](CO)NC(=O)[C@@H](N)C(C)C)C(=O)N[C@@H]([C@@H](C)O)C(=O)NCC(=O)N[C@@H](CO)C(=O)N[C@@H](CCCCN)C(=O)N[C@@H](CC(=O)O)C(=O)N[C@@H](CSSC[C@@H](C(=O)N[C@@H](CCCCN)C(=O)N[C@H]3CSSC[C@@H](C(N)=O)NC(=O)CNC(=O)[C@H](Cc4ccc(O)cc4)NC3=O)NC(=O)[C@H](CO)NC(=O)[C@H](CCCCN)NC(=O)[C@H](CC(N)=O)NC1=O)C(=O)N[C@@H](Cc1ccc(O)cc1)C(=O)N[C@@H](C)C(=O)N1CCC[C@H]1C(=O)N[C@H]1CSSC[C@H](NC(=O)CNC(=O)[C@H]([C@@H](C)O)NC(=O)[C@H](CCC(N)=O)NC(=O)[C@H](CCCCN)NC(=O)[C@H](CCCNC(=N)N)NC1=O)C(=O)N1CCC[C@H]1C(=O)N[C@@H](CC(N)=O)C(=O)N[C@@H](C)C(=O)N[C@@H](CCCCN)C(=O)N2 [MTX, Maurotoxin] (HELM PEPTIDE1{V.S.C.T.G.S.K.D.C.Y.A.P.C.R.K.Q.T.G.C.P.N.A.K.C.I.N.K.S.C.K.C.Y.G.C.[am]}$PEPTIDE1,PEPTIDE1,3:R3-24:R3|PEPTIDE1,PEPTIDE1,9:R3-29:R3|PEPTIDE1,PEPTIDE1,13:R3-19:R3|PEPTIDE1,PEPTIDE1,31:R3-34:R3$$$V2.0; N-terminus and C-terminus assumed)",negligible binding
3,"CC[C@H](C)[C@@H]1NC(=O)[C@@H](NC(=O)[C@H](CO)NC(=O)[C@@H](N)CCCNC(=N)N)CSSC[C@@H](C(=O)O)NC(=O)[C@H]([C@@H](C)O)NC(=O)CNC(=O)[C@@H]2CSSC[C@@H]3NC(=O)[C@H](CCC(N)=O)NC(=O)[C@H](Cc4ccccc4)NC(=O)[C@H](C)NC(=O)[C@H]([C@@H](C)O)NC(=O)[C@H](CSSC[C@H](NC(=O)[C@H](Cc4ccccc4)NC(=O)[C@H](CO)NC(=O)[C@H](CC(C)C)NC(=O)[C@H](CCCNC(=N)N)NC(=O)[C@H](Cc4ccc(O)cc4)NC(=O)[C@H](CCCCN)NC(=O)[C@H](CCSC)NC(=O)[C@H](CO)NC(=O)[C@H](Cc4c[nH]cn4)NC(=O)[C@H](CCCCN)NC3=O)C(=O)N[C@@H](CCCNC(=N)N)C(=O)N[C@@H](CCCCN)C(=O)N[C@@H]([C@@H](C)O)C(=O)N2)NC(=O)[C@H](CCCNC(=N)N)NC(=O)[C@H](CO)NC(=O)[C@H](CCCCN)NC(=O)[C@@H]2CCCN2C(=O)[C@H]([C@@H](C)CC)NC(=O)[C@H]([C@@H](C)O)NC(=O)[C@H](CC(=O)O)NC1=O [ShK, Stichodactyla toxin]",ShK > KTX1
